Assay [1] deals with Beta-2 adrenergic receptor (Homo sapiens, UniProt P07550).
For a further assay, the target named is Melanocortin receptor 3 (Homo sapiens, UniProt P41968).
Assay [2] has as its target T1, Alpha-1A adrenergic receptor (Homo sapiens, UniProt P35348).
T1 sequence (P35348 whole entry): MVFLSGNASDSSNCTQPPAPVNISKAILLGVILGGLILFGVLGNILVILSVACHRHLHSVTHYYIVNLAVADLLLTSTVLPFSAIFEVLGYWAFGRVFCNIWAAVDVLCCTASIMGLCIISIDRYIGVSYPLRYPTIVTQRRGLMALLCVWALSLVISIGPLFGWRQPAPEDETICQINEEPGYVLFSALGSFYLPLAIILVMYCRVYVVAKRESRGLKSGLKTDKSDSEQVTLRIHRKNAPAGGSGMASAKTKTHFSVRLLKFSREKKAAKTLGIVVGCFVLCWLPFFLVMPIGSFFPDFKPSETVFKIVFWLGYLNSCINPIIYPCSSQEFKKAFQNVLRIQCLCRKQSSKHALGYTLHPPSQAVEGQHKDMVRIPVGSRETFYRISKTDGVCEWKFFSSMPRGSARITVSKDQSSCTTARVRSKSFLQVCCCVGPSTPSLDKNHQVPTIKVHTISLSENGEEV
The assay is classed as functional, cell-based.

Assay [3] addresses Neuronal acetylcholine receptor subunit alpha-4 (Homo sapiens, UniProt P43681).
In assay [4] the target is Gamma-aminobutyric acid receptor subunit alpha-1 (Rattus norvegicus, UniProt P62813).
Assay [5] addresses T2, Muscarinic acetylcholine receptor M1 (Homo sapiens, UniProt P11229).
T2 sequence (P11229 whole entry): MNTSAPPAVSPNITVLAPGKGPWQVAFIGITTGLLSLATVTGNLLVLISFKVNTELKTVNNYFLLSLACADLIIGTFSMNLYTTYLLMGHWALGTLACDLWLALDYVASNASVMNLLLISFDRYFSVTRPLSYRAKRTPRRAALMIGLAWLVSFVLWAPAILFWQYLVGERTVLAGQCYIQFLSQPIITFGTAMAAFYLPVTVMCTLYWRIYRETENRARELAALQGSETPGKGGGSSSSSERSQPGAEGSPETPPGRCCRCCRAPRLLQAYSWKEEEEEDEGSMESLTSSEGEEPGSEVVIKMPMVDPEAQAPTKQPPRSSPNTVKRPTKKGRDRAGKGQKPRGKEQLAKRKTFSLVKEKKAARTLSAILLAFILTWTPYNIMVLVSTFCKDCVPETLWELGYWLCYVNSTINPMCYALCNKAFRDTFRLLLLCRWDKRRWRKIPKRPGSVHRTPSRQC
It is filed as functional.

For assay [6], the target named is Voltage-gated inwardly rectifying potassium channel KCNH2 (Homo sapiens, UniProt Q12809). The assay is classed as functional. The following applies: read-out: AC50.
The target of assay [7] is T3, Neuropeptide Y receptor type 1 (Homo sapiens, UniProt P25929).
T3 sequence (P25929 whole entry): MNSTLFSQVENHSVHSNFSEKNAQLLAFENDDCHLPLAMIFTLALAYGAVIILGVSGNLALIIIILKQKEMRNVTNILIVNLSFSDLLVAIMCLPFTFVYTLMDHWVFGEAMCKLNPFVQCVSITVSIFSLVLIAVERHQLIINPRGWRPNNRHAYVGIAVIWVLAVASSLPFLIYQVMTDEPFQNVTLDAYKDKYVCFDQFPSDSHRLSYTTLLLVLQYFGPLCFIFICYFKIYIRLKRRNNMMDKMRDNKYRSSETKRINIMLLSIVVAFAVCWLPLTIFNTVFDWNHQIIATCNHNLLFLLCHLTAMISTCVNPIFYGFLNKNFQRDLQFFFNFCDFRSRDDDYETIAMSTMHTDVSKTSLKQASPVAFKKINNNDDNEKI

For assay [8], the target named is T4, 5-hydroxytryptamine receptor 1A (Homo sapiens, UniProt P08908).
T4 sequence (P08908 whole entry): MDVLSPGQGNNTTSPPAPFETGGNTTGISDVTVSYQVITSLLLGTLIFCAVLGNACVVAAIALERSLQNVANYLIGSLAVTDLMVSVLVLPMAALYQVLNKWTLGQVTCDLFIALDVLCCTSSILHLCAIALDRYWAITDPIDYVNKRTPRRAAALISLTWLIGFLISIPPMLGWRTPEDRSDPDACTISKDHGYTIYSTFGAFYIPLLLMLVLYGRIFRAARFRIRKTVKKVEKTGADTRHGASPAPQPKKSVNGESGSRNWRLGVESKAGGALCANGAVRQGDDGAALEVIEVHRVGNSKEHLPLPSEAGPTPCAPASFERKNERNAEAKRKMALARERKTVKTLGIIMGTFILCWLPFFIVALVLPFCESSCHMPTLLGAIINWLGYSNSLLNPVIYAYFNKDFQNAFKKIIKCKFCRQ
The assay is classed as functional, cell-based.

The target of assay [9] is T5, Alpha-2B adrenergic receptor (Homo sapiens, UniProt P18089).
T5 sequence (P18089 whole entry): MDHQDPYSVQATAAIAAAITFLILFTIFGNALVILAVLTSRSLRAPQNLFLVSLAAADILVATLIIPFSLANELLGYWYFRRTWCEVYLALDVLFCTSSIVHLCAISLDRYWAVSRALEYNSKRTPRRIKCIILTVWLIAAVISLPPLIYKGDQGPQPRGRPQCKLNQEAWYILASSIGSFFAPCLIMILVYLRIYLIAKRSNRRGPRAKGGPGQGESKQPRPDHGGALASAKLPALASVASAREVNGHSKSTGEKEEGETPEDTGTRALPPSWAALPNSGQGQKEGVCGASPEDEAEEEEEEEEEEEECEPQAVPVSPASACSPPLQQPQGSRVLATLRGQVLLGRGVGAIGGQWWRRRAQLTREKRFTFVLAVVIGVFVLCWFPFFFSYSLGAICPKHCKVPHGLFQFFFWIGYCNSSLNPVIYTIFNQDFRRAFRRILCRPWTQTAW

Assay [10] concerns the target Glutamate receptor ionotropic, NMDA 1 (Rattus norvegicus, UniProt P35439).
A further assay addresses Cannabinoid receptor 1 (Homo sapiens, UniProt P21554). The assay is classed as functional, cell-based.

Broadly, the AC50 is the midpoint of the concentration-response curve, whichever way the signal moves.
Note: assay procedure not described here.

Beta-2 adrenergic receptor, sequence (P07550 whole entry): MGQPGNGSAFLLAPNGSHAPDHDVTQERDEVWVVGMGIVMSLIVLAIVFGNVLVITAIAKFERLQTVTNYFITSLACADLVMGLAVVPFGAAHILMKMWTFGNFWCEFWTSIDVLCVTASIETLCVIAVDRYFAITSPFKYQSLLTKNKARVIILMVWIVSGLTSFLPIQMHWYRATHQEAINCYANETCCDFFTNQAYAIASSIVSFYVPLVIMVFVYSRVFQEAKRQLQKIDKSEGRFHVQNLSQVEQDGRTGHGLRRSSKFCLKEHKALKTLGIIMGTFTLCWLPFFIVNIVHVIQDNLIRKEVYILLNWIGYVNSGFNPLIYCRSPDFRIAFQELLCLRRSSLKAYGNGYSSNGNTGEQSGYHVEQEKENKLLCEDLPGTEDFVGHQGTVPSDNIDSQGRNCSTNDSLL
Neuronal acetylcholine receptor subunit alpha-4, sequence (P43681 whole entry): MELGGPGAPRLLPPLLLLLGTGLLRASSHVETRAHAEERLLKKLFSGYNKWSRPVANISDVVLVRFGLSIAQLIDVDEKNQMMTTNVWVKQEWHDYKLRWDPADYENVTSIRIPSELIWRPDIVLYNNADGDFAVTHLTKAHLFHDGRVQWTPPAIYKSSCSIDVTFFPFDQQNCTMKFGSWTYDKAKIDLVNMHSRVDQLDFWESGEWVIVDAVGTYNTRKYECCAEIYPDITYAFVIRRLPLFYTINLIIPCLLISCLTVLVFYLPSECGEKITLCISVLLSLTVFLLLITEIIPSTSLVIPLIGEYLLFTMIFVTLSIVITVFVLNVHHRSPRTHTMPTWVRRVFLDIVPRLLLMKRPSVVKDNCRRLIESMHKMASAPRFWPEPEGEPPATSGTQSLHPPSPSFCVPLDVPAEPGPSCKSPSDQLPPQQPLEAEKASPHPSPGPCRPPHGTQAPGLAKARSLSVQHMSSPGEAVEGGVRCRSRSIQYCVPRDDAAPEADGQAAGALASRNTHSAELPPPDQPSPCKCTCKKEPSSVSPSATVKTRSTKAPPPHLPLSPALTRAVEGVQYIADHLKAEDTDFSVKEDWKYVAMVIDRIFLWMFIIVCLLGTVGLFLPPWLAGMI
Voltage-gated inwardly rectifying potassium channel KCNH2, sequence (Q12809 whole entry): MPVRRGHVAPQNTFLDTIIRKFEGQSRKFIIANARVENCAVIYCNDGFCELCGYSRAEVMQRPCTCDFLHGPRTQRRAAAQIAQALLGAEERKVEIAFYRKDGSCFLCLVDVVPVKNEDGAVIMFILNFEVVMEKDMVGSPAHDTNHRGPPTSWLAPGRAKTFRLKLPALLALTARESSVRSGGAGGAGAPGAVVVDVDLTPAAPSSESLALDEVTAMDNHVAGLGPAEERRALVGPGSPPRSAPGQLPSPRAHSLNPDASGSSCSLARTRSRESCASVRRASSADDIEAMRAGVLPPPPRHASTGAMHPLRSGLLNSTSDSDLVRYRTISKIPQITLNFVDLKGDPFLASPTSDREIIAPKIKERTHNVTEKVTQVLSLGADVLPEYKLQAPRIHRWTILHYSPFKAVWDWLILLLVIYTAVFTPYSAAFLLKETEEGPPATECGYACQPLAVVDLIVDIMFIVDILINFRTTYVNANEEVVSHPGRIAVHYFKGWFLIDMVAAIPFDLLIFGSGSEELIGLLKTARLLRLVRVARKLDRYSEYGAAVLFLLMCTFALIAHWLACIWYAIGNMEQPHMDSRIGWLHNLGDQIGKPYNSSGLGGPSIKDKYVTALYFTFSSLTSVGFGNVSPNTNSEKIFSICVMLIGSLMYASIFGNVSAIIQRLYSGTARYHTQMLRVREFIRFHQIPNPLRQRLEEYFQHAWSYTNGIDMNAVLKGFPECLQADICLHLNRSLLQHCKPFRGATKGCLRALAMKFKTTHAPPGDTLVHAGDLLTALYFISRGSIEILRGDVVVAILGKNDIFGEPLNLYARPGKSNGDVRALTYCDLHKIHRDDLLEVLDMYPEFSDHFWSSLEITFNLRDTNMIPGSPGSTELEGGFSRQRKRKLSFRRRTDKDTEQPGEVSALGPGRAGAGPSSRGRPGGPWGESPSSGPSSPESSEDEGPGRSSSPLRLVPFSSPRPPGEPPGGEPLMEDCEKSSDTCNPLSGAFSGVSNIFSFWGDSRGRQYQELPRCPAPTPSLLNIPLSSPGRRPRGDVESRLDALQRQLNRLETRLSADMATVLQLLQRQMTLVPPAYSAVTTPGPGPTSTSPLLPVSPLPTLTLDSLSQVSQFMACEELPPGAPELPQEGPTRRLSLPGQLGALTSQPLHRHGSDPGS
Cannabinoid receptor 1, sequence (P21554 whole entry): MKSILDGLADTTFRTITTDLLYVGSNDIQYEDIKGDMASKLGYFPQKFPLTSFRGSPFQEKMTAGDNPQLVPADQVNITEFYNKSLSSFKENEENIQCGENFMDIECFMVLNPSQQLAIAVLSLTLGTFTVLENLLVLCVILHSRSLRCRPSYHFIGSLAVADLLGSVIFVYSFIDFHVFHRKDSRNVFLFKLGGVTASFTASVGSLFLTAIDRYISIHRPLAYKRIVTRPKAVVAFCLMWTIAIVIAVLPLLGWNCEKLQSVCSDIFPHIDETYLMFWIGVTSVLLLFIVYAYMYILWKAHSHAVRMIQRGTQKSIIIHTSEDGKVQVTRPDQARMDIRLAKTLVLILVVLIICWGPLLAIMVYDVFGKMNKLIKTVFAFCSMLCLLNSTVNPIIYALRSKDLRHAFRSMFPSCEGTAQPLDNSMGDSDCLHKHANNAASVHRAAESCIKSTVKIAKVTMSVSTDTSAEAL
Melanocortin receptor 3, sequence (P41968 whole entry): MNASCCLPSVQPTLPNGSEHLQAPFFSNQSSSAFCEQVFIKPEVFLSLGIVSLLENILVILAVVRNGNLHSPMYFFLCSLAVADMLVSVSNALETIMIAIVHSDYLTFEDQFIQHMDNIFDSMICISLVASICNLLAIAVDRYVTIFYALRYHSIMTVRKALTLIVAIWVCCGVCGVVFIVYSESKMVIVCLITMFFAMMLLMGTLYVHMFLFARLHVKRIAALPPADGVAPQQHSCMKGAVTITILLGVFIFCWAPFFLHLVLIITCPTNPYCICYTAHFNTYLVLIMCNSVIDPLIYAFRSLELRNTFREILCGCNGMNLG
Gamma-aminobutyric acid receptor subunit alpha-1, sequence (P62813 whole entry): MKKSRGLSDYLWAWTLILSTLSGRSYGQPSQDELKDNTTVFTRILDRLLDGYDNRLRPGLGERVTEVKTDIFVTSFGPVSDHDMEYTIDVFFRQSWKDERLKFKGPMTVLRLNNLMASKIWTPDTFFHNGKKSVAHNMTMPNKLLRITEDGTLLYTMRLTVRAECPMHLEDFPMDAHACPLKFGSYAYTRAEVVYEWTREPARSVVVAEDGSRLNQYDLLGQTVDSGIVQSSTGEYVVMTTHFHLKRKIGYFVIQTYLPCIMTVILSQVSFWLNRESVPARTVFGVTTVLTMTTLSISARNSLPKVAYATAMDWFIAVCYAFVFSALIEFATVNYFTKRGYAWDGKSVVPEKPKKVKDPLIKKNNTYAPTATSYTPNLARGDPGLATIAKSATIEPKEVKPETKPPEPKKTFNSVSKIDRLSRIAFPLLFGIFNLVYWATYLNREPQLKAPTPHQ

With `COc1ccc2c3c1O[C@H]1[C@@H](O)C=C[C@H]4[C@@H](C2)N(C)CC[C@@]341` [CODEINE], the AC50 in assay [1] was greater than 10 µM; at Melanocortin receptor 3, greater than 30 µM; in [2], greater than 30 µM; in assay [3], greater than 10 µM; in [4], greater than 30 µM; in assay [5] it was greater than 10 µM. The AC50 was greater than 30 µM in [6]; greater than 30 µM in assay [7]; greater than 10 µM in assay [8]; greater than 10 µM in assay [9]; greater than 10 µM in assay [10]; greater than 30 µM on Cannabinoid receptor 1.

As for `CC(=O)OCC(=O)[C@@]12N=C(C)O[C@@H]1C[C@H]1[C@@H]3CCC4=CC(=O)C=C[C@]4(C)[C@H]3[C@@H](O)C[C@@]12C` [DEFLAZACORT], the AC50 (in assay [1]; at Melanocortin receptor 3; in assay [2]; in [3]; in assay [4]; in [5]) was greater than 30 µM throughout. Moreover, the AC50 (in assay [6]; in assay [7]; in assay [8]; in assay [9]; in assay [10]; on Cannabinoid receptor 1) was greater than 30 µM throughout.

Regarding `CC1(C)O[C@@H]2C[C@H]3[C@@H]4CCC5=CC(=O)C=C[C@]5(C)[C@H]4[C@@H](O)C[C@]3(C)[C@]2(C(=O)CO)O1` [DESONIDE], the AC50 was greater than 10 µM in assay [1]; greater than 10 µM at Melanocortin receptor 3; greater than 30 µM in [2]; greater than 10 µM in assay [3]; greater than 10 µM in [4]; greater than 10 µM in [5]. The AC50 in assay [6] was greater than 30 µM; in [7] it was greater than 10 µM; in assay [8], greater than 10 µM; in assay [9], greater than 10 µM; in assay [10] it was greater than 10 µM; at Cannabinoid receptor 1, greater than 30 µM.

With `CCCCc1ncc(/C=C(\Cc2cccs2)C(=O)O)n1Cc1ccc(C(=O)O)cc1` [EPROSARTAN], the concentration at half-maximal activity (AC50) in assay [1] was greater than 10 µM; on Melanocortin receptor 3 it was greater than 10 µM; in assay [2], greater than 30 µM; in assay [3], greater than 10 µM; in assay [4] it was greater than 10 µM; in assay [5] it was greater than 10 µM. The AC50 in assay [6] is greater than 30 µM; in assay [7] it was greater than 10 µM; in assay [8], greater than 10 µM; in assay [9], greater than 10 µM; in assay [10] it was greater than 10 µM; on Cannabinoid receptor 1, greater than 30 µM.

Regarding `CCCCCCOc1ccccc1C(N)=O` [EXALAMIDE], the AC50 (in assay [1]; at Melanocortin receptor 3; in assay [2]; in assay [3]; in assay [4]; in assay [5]) was greater than 30 µM in each case. Moreover, the AC50 (in assay [6]; in [7]; in assay [8]; in assay [9]; in assay [10]; at Cannabinoid receptor 1) was greater than 30 µM each time.

As for `COc1ccc(CCN(C)CCCC(C#N)(c2cc(OC)c(OC)c(OC)c2)C(C)C)cc1OC` (configuration not stated) [GALLOPAMIL], the AC50 (in [1]; on Melanocortin receptor 3; in assay [2]; in [3]; in [4]; in assay [5]) was greater than 30 µM each time. The AC50 in assay [6] is 1.9 µM; in assay [7], greater than 30 µM; in assay [8] it was greater than 30 µM; in assay [9], greater than 30 µM; in assay [10] it was greater than 30 µM; on Cannabinoid receptor 1 it was greater than 30 µM.

Turning to `CC(C)C(=O)c1c(C(C)C)nn2ccccc12` [IBUDILAST], the AC50 (in assay [1]; at Melanocortin receptor 3; in assay [2]; in [3]; in assay [4]; in [5]) was greater than 30 µM throughout. The AC50 (in [6]; in assay [7]; in assay [8]; in assay [9]; in [10]; at Cannabinoid receptor 1) was greater than 30 µM in each case.

Take `CCC(C(=O)O)c1ccc(N2Cc3ccccc3C2=O)cc1` (configuration not stated) [INDOBUFEN]: the AC50 (in [1]; on Melanocortin receptor 3; in [2]; in assay [3]; in assay [4]; in [5]) was greater than 30 µM each time. The AC50 (in assay [6]; in [7]; in [8]; in assay [9]; in [10]; on Cannabinoid receptor 1) was greater than 30 µM each time.

On to `CN1C(=O)C(O)N=C(c2ccccc2Cl)c2cc(Cl)ccc21` (configuration not stated) [LORMETAZEPAM], for which the AC50 (in assay [1]; at Melanocortin receptor 3; in [2]; in [3]; in assay [4]; in [5]) was greater than 30 µM in each case. Moreover, the AC50 (in assay [6]; in assay [7]; in assay [8]; in assay [9]; in assay [10]; on Cannabinoid receptor 1) was greater than 30 µM in each case.

On to `CCOC(=O)[N-]c1cn(N2CCOCC2)n[o+]1` [MOLSIDOMINE], for which the AC50 (in [1]; at Melanocortin receptor 3; in assay [2]; in [3]; in assay [4]; in assay [5]) was greater than 30 µM in each case. Also, the AC50 (in [6]; in [7]; in assay [8]; in [9]; in assay [10]; on Cannabinoid receptor 1) was greater than 30 µM throughout.

For `OC(CNCC(O)C1CCc2cc(F)ccc2O1)C1CCc2cc(F)ccc2O1` (configuration not stated) [NEBIVOLOL], the AC50 is 0.07 µM in assay [1]; 8.7 µM on Melanocortin receptor 3; greater than 30 µM in assay [2]; greater than 30 µM in [3]; greater than 30 µM in [4]; 19 µM in assay [5]. The AC50 in [6] is 0.83 µM; in [7], 24 µM; in assay [8] it was 1.6 µM; in assay [9], 4.5 µM; in assay [10] it was greater than 30 µM; at Cannabinoid receptor 1, greater than 30 µM.

(Values after ChEMBL document CHEMBL5291721, “A preclinical secondary pharmacology resource illuminates target-adverse drug reaction associations of marketed drugs” (Nat Commun, 2023).)
